Source: patent US6936585B2, “Corticotropin releasing factor 2 receptor agonists” (priority 2002, dated 2005)
pEC50: −log10 of the molar value. Ends that are not written are not given here. Peptide text beside a SMILES is read from it.

What was measured:
[1] = target: T1, CRF2R (Homo sapiens, UniProt Q13324); test: CRF2R agonist activation (EC50 / Emax), called comparative CRF binding; type: cell-based; conditions: for Emax: read-out: CRF2R Emax
T1 sequence (Q13324 1-411): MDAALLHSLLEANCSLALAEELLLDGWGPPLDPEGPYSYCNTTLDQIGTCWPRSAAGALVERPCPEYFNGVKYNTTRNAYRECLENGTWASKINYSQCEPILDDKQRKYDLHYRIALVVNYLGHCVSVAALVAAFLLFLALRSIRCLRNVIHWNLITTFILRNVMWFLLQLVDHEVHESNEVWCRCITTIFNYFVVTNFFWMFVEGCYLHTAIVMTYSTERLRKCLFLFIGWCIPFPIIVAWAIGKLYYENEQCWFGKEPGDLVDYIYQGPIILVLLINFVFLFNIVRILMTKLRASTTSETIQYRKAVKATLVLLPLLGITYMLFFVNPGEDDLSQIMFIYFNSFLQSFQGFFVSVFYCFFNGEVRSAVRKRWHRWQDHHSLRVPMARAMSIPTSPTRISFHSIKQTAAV
Summary of the method: (§1)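 Cells expressing full-length human CRF1R or CRF2R were exposed to peptide or vehicle control, and receptor activation was gauged as cAMP induction. cAMP was measured in cell lysates or via a cAMP-responsive element driving a reporter gene such as luciferase, CAT, GFP or alkaline phosphatase.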

[2] = target: T2, CRF1R (Homo sapiens, UniProt P34998); test: CRF1R agonist activation (EC50 / Emax), called comparative CRF binding; type: cell-based; conditions: for Emax: read-out: CRF1R Emax
T2 sequence (P34998 24-415): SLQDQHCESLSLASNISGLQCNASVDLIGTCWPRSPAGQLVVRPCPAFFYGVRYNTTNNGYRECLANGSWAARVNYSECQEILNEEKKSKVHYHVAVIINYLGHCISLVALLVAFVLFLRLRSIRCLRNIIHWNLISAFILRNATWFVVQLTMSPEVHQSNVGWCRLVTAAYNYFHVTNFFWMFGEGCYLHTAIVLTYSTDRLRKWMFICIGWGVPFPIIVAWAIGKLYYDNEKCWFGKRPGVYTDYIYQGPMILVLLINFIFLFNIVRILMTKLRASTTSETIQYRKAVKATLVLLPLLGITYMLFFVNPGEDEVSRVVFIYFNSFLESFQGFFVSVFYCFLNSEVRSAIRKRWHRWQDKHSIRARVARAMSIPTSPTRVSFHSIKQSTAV
Summary of the method: as §1

CC[C@H](C)[C@H](N)C(=O)N[C@H](C(=O)N[C@@H](CC(C)C)C(=O)N[C@@H](CO)C(=O)N[C@@H](CC(C)C)C(=O)N[C@@H](CC(=O)O)C(=O)N[C@H](C(=O)N1CCC[C@H]1C(=O)N[C@H](C(=O)NCC(=O)N[C@@H](CC(C)C)C(=O)N[C@@H](CC(C)C)C(=O)N[C@@H](CCC(N)=O)C(=O)N[C@H](C(=O)N[C@@H](CC(C)C)C(=O)N[C@@H](CC(C)C)C(=O)N[C@@H](CCC(=O)O)C(=O)N[C@@H](CCC(N)=O)C(=O)N[C@H](C(=O)N[C@@H](CCCNC(=N)N)C(=O)N[C@@H](C)C(=O)N[C@@H](CC(=O)O)C(=O)N[C@@H](C)C(=O)N[C@@H](C)C(=O)N[C@@H](CCCNC(=N)N)C(=O)N[C@@H](CCC(=O)O)C(=O)N[C@@H](CCC(N)=O)C(=O)N[C@@H](C)C(=O)N[C@H](C(=O)N[C@H](C(=O)N[C@@H](CC(N)=O)C(=O)N[C@@H](C)C(=O)N[C@@H](CCCNC(=N)N)C(=O)N[C@H](C(=O)N[C@@H](CC(C)C)C(=O)N[C@@H](C)C(=O)N[C@@H](CCCNC(=N)N)C(=O)N[C@H](C(N)=O)C(C)C)[C@@H](C)CC)[C@@H](C)O)[C@@H](C)O)[C@@H](C)O)[C@@H](C)CC)[C@@H](C)CC)C(C)C)C(C)C [compound 126] (H-IVLSLDVPIGLLQILLEQTRADAAREQATTNARILARV-NH2; N-terminus assumed)
pEC50 ([1]; read-out: CRF2R EC50): 7.89
Emax [1]: 91%
pEC50 ([2]; read-out: CRF1R EC50): < 7.00
Emax [2]: 7%

CC[C@H](C)[C@H](N)C(=O)N[C@H](C(=O)N[C@@H](CC(C)C)C(=O)N[C@@H](CO)C(=O)N[C@@H](CC(C)C)C(=O)N[C@@H](CC(=O)O)C(=O)N[C@H](C(=O)N1CCC[C@H]1C(=O)N[C@H](C(=O)NCC(=O)N[C@@H](CC(C)C)C(=O)N[C@@H](CC(C)C)C(=O)N[C@@H](CCC(N)=O)C(=O)N[C@H](C(=O)N[C@@H](CC(C)C)C(=O)N[C@@H](CC(C)C)C(=O)N[C@@H](CCC(=O)O)C(=O)N[C@@H](CCC(N)=O)C(=O)N[C@@H](C)C(=O)N[C@@H](C)C(=O)N[C@@H](C)C(=O)N[C@@H](C)C(=O)N[C@@H](CCCNC(=N)N)C(=O)N[C@@H](CCC(=O)O)C(=O)N[C@@H](CCC(N)=O)C(=O)N[C@@H](C)C(=O)N[C@H](C(=O)N[C@H](C(=O)N[C@@H](CC(N)=O)C(=O)N[C@@H](C)C(=O)N[C@@H](CCCNC(=N)N)C(=O)N[C@H](C(=O)N[C@@H](CC(C)C)C(=O)N[C@@H](C)C(=O)N[C@@H](CCCNC(=N)N)C(=O)N[C@H](C(N)=O)C(C)C)[C@@H](C)CC)[C@@H](C)O)[C@@H](C)O)[C@@H](C)CC)[C@@H](C)CC)C(C)C)C(C)C [compound 134] (H-IVLSLDVPIGLLQILLEQAAAAREQATTNARILARV-NH2)
Emax [1]: 19%
Emax [2]: 7%

CC[C@H](C)[C@H](N)C(=O)N[C@H](C(=O)N[C@@H](CC(C)C)C(=O)N[C@@H](CO)C(=O)N[C@@H](CC(C)C)C(=O)N[C@@H](CC(=O)O)C(=O)N[C@H](C(=O)N1CCC[C@H]1C(=O)N[C@H](C(=O)NCC(=O)N[C@@H](CC(C)C)C(=O)N[C@@H](CC(C)C)C(=O)N[C@@H](CCC(N)=O)C(=O)N[C@H](C(=O)N[C@@H](CC(C)C)C(=O)N[C@@H](CC(C)C)C(=O)N[C@@H](CCC(=O)O)C(=O)N[C@@H](CC(C)C)C(=O)N[C@@H](C)C(=O)N[C@@H](CCCNC(=N)N)C(=O)N[C@H](C(=O)N[C@@H](CCC(N)=O)C(=O)N[C@@H](CO)C(=O)N[C@@H](CCC(N)=O)C(=O)N[C@@H](CCCNC(=N)N)C(=O)N[C@@H](CCC(=O)O)C(=O)N[C@@H](CCCNC(=N)N)C(=O)N[C@@H](C)C(=O)N[C@@H](CCC(=O)O)C(=O)N[C@@H](CCC(N)=O)C(=O)N[C@@H](CC(N)=O)C(=O)N[C@@H](CCCNC(=N)N)C(=O)N[C@H](C(=O)N[C@H](C(=O)N[C@@H](Cc1ccccc1)C(=O)N[C@@H](CC(=O)O)C(=O)N[C@@H](CO)C(=O)N[C@H](C(N)=O)C(C)C)[C@@H](C)CC)[C@@H](C)CC)[C@@H](C)O)[C@@H](C)O)[C@@H](C)CC)C(C)C)C(C)C [compound 160] (H-IVLSLDVPIGLLQTLLELARTQSQRERAEQNRIIFDSV-NH2; N-terminus assumed)
Emax [1]: 87%
Emax [2]: 10%

CC[C@H](C)[C@H](NC(=O)[C@H](CCCNC(=N)N)NC(=O)[C@H](C)NC(=O)[C@H](CC(N)=O)NC(=O)[C@H](CCC(N)=O)NC(=O)[C@H](CCC(=O)O)NC(=O)[C@H](C)NC(=O)[C@H](CCCNC(=N)N)NC(=O)[C@H](CCC(=O)O)NC(=O)[C@H](CCCNC(=N)N)NC(=O)[C@H](CCC(N)=O)NC(=O)[C@H](CO)NC(=O)[C@H](CCC(N)=O)NC(=O)[C@@H](NC(=O)[C@H](CCCCN)NC(=O)[C@H](CCC(=O)O)NC(=O)[C@H](CC(C)C)NC(=O)[C@H](CCC(=O)O)NC(=O)[C@H](CC(C)C)NC(=O)[C@H](CC(C)C)NC(=O)[C@@H](NC(=O)[C@H](CCCNC(=N)N)NC(=O)[C@H](CC(C)C)NC(=O)[C@H](CC(C)C)NC(=O)[C@H](Cc1ccccc1)NC(=O)[C@H](CC(C)C)NC(=O)[C@@H]1CCCN1C(=O)[C@H](CC(C)C)NC(=O)[C@H](CC(=O)O)NC(=O)[C@@H](NC(=O)[C@H](CO)NC(=O)[C@H](CC(C)C)NC(=O)[C@H](CO)NC(=O)[C@@H]1CCCN1C(=O)[C@H](CC(N)=O)NC(=O)[C@@H](N)CC(=O)O)[C@@H](C)CC)[C@@H](C)O)[C@@H](C)O)C(=O)N[C@@H](Cc1ccccc1)C(=O)N[C@@H](CC(=O)O)C(=O)N[C@@H](CCCNC(=N)N)C(=O)N[C@H](C(N)=O)C(C)C [compound 336] (H-DNPSLSIDLPLFLLRTLLELEKTQSQRERAEQNARIFDRV-NH2; N-terminus assumed)
Emax [1]: 100%
Emax [2]: 59.9%

CC[C@H](C)[C@H](N)C(=O)N[C@H](C(=O)N[C@@H](CC(C)C)C(=O)N[C@@H](CO)C(=O)N[C@@H](CC(C)C)C(=O)N[C@@H](CC(=O)O)C(=O)N[C@H](C(=O)N1CCC[C@H]1C(=O)N[C@H](C(=O)NCC(=O)N[C@@H](CC(C)C)C(=O)N[C@@H](CC(C)C)C(=O)N[C@@H](CCC(N)=O)C(=O)N[C@H](C(=O)N[C@@H](CC(C)C)C(=O)N[C@@H](CC(C)C)C(=O)N[C@@H](CCC(=O)O)C(=O)N[C@@H](CCCCN)C(=O)N[C@@H](C)C(=O)N[C@@H](C)C(=O)N[C@@H](C)C(=O)N[C@@H](CCC(=O)O)C(=O)N[C@@H](C)C(=O)N[C@@H](CCC(=O)O)C(=O)N[C@@H](C)C(=O)N[C@@H](C)C(=O)N[C@@H](C)C(=O)N[C@@H](CCCCN)C(=O)N[C@@H](C)C(=O)N[C@@H](C)C(=O)N[C@@H](CCC(N)=O)C(=O)N[C@@H](CCC(=O)O)C(=O)N[C@@H](CCC(N)=O)C(=O)N[C@H](C(=O)N[C@@H](CC(C)C)C(=O)N[C@@H](C)C(=O)N[C@@H](Cc1c[nH]cn1)C(=O)N[C@H](C(N)=O)C(C)C)[C@@H](C)CC)[C@@H](C)CC)[C@@H](C)CC)C(C)C)C(C)C [compound 366] (H-IVLSLDVPIGLLQILLEKAAAEAEAAAKAAQEQILAHV-NH2)
Emax [1]: 46%
Emax [2]: 9%

SQEPPISLDLPLYLLREVLEMTKADQLAQQAHSNRKLLDIA-NH2 [compound 101]
Emax [1]: 6.95%
Emax [2]: 7.35%

CC[C@H](C)[C@H](N)C(=O)N[C@H](C(=O)N[C@@H](CC(C)C)C(=O)N[C@@H](CO)C(=O)N[C@@H](CC(C)C)C(=O)N[C@@H](CC(=O)O)C(=O)N[C@H](C(=O)N1CCC[C@H]1C(=O)N[C@H](C(=O)NCC(=O)N[C@@H](CC(C)C)C(=O)N[C@@H](CC(C)C)C(=O)N[C@@H](CCC(N)=O)C(=O)N[C@H](C(=O)N[C@@H](CC(C)C)C(=O)N[C@@H](CC(C)C)C(=O)N[C@@H](CCC(=O)O)C(=O)N[C@@H](CCC(N)=O)C(=O)N[C@@H](C)C(=O)N[C@@H](C)C(=O)N[C@@H](CCCNC(=N)N)C(=O)N[C@@H](C)C(=O)N[C@@H](C)C(=O)N[C@@H](CCCNC(=N)N)C(=O)N[C@@H](CCC(=O)O)C(=O)N[C@@H](CCC(N)=O)C(=O)N[C@@H](C)C(=O)N[C@H](C(=O)N[C@H](C(=O)N[C@@H](CC(N)=O)C(=O)N[C@@H](C)C(=O)N[C@@H](CCCNC(=N)N)C(=O)N[C@H](C(=O)N[C@@H](CC(C)C)C(=O)N[C@@H](C)C(=O)N[C@@H](CCCNC(=N)N)C(=O)N[C@H](C(N)=O)C(C)C)[C@@H](C)CC)[C@@H](C)O)[C@@H](C)O)[C@@H](C)CC)[C@@H](C)CC)C(C)C)C(C)C [compound 135] (H-IVLSLDVPIGLLQILLEQAARAAREQATTNARILARV-NH2)
Emax [1]: 76%
Emax [2]: 6%
